Measured values published in patent US11674962B2, “Therapeutic and diagnostic methods for cancer” (Genentech, Inc., priority 2017, dated 2023).

Tests used:
Format in all cases: in vivo, human
[1] = tested on: treatment-naive, locally advanced or metastatic (stage IIIB-IVB) NSCLC; assay: B-F1RST phase II trial (NCT02848651) interim analysis: efficacy of first-line atezolizumab by bTMB subgroup
Description: (§1) The B-F1 RST (Clinical Trial ID No.: NCT02848651) patient population being evaluated for bTMB score consists of approximately 150 patients at 20 to 25 study sites (N=153). Patients are eligible for enrollment in the B-F1 RST study if they have treatment-naïve, locally advanced or metastatic (e.g., stage IIIB-IVB) NSCLC; measurable disease, as defined by RECIST v1.1; and an ECOG performance status of 0 or 1. Exclusion criteria include sensitizing EGFR mutations or ALK rearrangements; active brain metastases requiring treatment; leptomeningeal disease; other malignancies within 5 years of enrollment; HBV, HCV, or HIV infection; or history of autoimmune disorder. Participants are divided into cohorts based on bTMB score and receive atezolizumab at a dose of 1200 mg intravenously every three weeks. All patients undergo tumor assessment at baseline and every 6 weeks for the first 12 months following cycle 1, day 1, and then every 9 weeks therafter. Treatment with atezolizumab can be continued as long as participants were experiencing clinical benefit, i.e., in the absence of unacceptable toxicity or symptomatic deterioration attributed to disease progression. Tumor assessments continue until disease progression per RECIST v1.1 or loss of clinical benefit (investigator assessed), consent withdrawal, study discontinuation, study completion, or death. Mandatory blood samples are taken at baseline, during therapy, and at progression to evaluate changes in exploratory biomarkers. The interim analysis was prespecified to occur at 6 months after 50% of the patients have been enrolled, with a prespecified bTMB score of ≥16. The co-primary endpoints are the clinical efficacy of atezolizumab (as evaluated by investigator-assessed ORR per RECIST v1.1) and the relationship between bTMB and PFS benefit (as evaluated by investigator-assessed PFS per RECIST v1.1). The secondary objectives are safety and assessment of efficacy by investigator-assessed duration of response (DOR) and OS.
(§2) Of 78 treated patients in the interim analysis population (IAP) from the B-F1 RST study, 58 had adequate blood samples with sufficient detection of circulating tumor DNA (MSAF≥1%) and comprised the biomarker-evaluable population (BEP). One patient of the IAP was never treated and therefore not safety- or efficacy-evaluable. A bTMB score of 16 (prevalence, 19% [11/58]) was prespecified to evaluate clinical efficacy in the BEP (bTMB high, ≥16; bTMB low, <16). Statistical tests were 2-sided at a 0.1 level and 90% confidence interval.

[2] = tested on: treatment-naive, locally advanced or metastatic (stage IIIB-IVB) NSCLC; assay: B-F1RST phase II trial (NCT02848651) interim analysis: safety (adverse events) of atezolizumab
Description: as §1, §2

[3] = tested on: non-small cell lung cancer (NSCLC); assay: Combined POPLAR and OAK studies: PFS by bTMB score; conditions: combined BEP of POPLAR and OAK (n=775), reference bTMB score of 14, atezolizumab vs docetaxel
Description: FIG. 7A is a graph showing the Kaplan-Meier Curve of PFS of the combined BEP of patients (nBEP=775 patients; HR=0.62) in the atezolizumab treatment arm (black) and docetaxel control arm (gray) of the POPLAR and OAK studies, each arm stratified according to bTMB score. Patients with a bTMB score that is greater than, or equal to, a reference bTMB score of 14 are indicated by solid lines (Dx+) and patients with a bTMB that is lower than a reference bTMB score of 14 are indicated by dashed lines (Dx−). […] The time point for each column corresponds to the times shown along the x-axis of the above graph. Patient samples having an MSAF less than 1% were excluded from analysis. Sequence coverage was greater than, or equal to, 800. […]
Analysis of bTMB was performed retrospectively. Progression-free survival (PFS) was defined as the time between date of randomization and date of first documented disease progression as assessed by the investigator using RECIST v.1.1 or death from any cause, whichever occurred first. […]

[4] = bTMB cut-off score 12, BEP n = 58
[5] = bTMB cut-off score 14, BEP n = 58
[6] = bTMB cut-off score 16, BEP n = 58
[7] = bTMB cut-off score 20, BEP n = 58

atezolizumab
disease control rate ([1]; B-F1RST interim analysis, BEP (n=58)): 25.9%
ORR ([1]; B-F1RST interim analysis, BEP (n=58), RECIST v1.1): 12.1%
PFS HR (90% CI) ([1]; B-F1RST interim analysis, bTMB high (≥16) vs low (<16)): 0.51
median PFS ([1]; B-F1RST interim analysis, bTMB high (≥16), minimum follow-up of 6 months): 9.5 months
ORR ([1]; B-F1RST interim analysis, bTMB high (≥16), n=11): 36.4%
ORR odds ratio (90% CI) ([1]; B-F1RST interim analysis, bTMB high versus low groups): 8.38
median PFS ([1]; B-F1RST interim analysis, bTMB low (<16), minimum follow-up of 6 months): 2.8 months
ORR ([1]; B-F1RST interim analysis, bTMB low (<16), n=47): 6.4%
ORR per RECIST v.1.1 ([1]; BEP (n = 58)): 12.1%
PD per RECIST v.1.1 ([1]; BEP (n = 58)): 37.9%
PR per RECIST v.1.1 ([1]; BEP (n = 58)): 12.1%
ORR per RECIST v.1.1 ([1]; IAP (n = 78)): 15.4%
PD per RECIST v.1.1 ([1]; IAP (n = 78)): 37.2%
PR per RECIST v.1.1 ([1]; IAP (n = 78)): 15.4%
PFS Median, bTMB High [1, 4]: 3.0 (22) months
PFS Median, bTMB Low [1, 4]: 3.2 (36) months
PFS Median, bTMB High [1, 5]: 3.4 (14) months
PFS Median, bTMB Low [1, 5]: 3.2 (44) months
PFS Median, bTMB High [1, 6]: 9.5 (11) months
PFS Median, bTMB Low [1, 6]: 2.8 (47) months
PFS Median, bTMB High [1, 7]: 9.5 (8) months
PFS Median, bTMB Low [1, 7]: 2.7 (50) months
ORR per RECIST v.1.1 ([1]; bTMB high (n = 11)): 36.4%
PD per RECIST v.1.1 ([1]; bTMB high (n = 11)): 36.4%
PR per RECIST v.1.1 ([1]; bTMB high (n = 11)): 36.4%
PFS HR ([1]; bTMB high (≥16) vs bTMB low (<16), Table 20): 0.51
median PFS ([1]; bTMB high (≥16), n = 11, BEP, first-line atezolizumab, minimum follow-up 6 months): 9.5 mo
PFS HR ([1]; bTMB high vs low at cut-off score 12, BEP n = 58): 0.95
PFS HR ([1]; bTMB high vs low at cut-off score 14, BEP n = 58): 0.73
PFS HR ([1]; bTMB high vs low at cut-off score 16, BEP n = 58, Table 21): 0.49
PFS HR ([1]; bTMB high vs low at cut-off score 20, BEP n = 58): 0.23
median PFS ([1]; bTMB low (<16), n = 47, BEP, first-line atezolizumab, minimum follow-up 6 months): 2.8 mo
ORR per RECIST v.1.1 ([1]; bTMB low (n = 47)): 6.4%
PD per RECIST v.1.1 ([1]; bTMB low (n = 47)): 38.3%
PR per RECIST v.1.1 ([1]; bTMB low (n = 47)): 6.4%
Treatment-related Grade 5 AEs ([2]; Patients in IAP (n = 78)): ^bNo treatment-related Grade 5 AEs were reported.
Grade 5 AEs, any cause ([2]; Patients in IAP (n = 78), reported as death, cardiac arrest, pulmonary embolism (n = 1 each)): 3 (3.8%) n (%)
AE of special interest: Adrenal insufficiency ([2]; in vivo): 1 (1.3%) n (%)
AEs leading to discontinuation, patients ([2]; in vivo): 15.4%
AEs leading to treatment discontinuation ([2]; in vivo): 12 (15.4%) n (%)
AEs, any cause ([2]; in vivo): 78 (100.0%) n (%)
Grade 3-4 AEs, any cause ([2]; in vivo): 40 (51.3%) n (%)
SAEs, any cause ([2]; in vivo): 35 (44.9%) n (%)
Treatment-related AEs ([2]; in vivo): 59 (75.6%) n (%)
Treatment-related Grade 3-4 AEs ([2]; in vivo): 15 (19.2%) n (%)
Treatment-related SAEs ([2]; in vivo): 12 (15.4%) n (%)
Treatment-related serious AEs, patients ([2]; in vivo): 14.1%
tolerability ([2]; in vivo): well tolerated
treatment-related grade 3/4 AEs, patients ([2]; in vivo): 16.7%
PFS HR [3]: 0.62
